The source of these data is BindingDB's records for doi:10.1016/j.bmcl.2005.07.040 (Universit&#233, 2005).

Usually IC50 stands for the concentration at which inhibition is half-maximal. Read a high IC50 as lower potency.

Bounds are passed on as bounds.

The assay addresses Sigma non-opioid intracellular receptor 1 (Cavia porcellus). The experiment in a line: Inhibitory concentration against opioid receptor sigma 1 of guinea pig cerebral cortex using [3H](+)-pentazocine upon incubation for 150 minutes at 22 degree C.
For `O=c1n(CCN2CCCCC2)c(O)c2n1Cc1ccccc1C2`, the concentration for half-maximal inhibition (IC50) worked out at 6.6 nM.
`c1ccc2c(c1)C[C@H]1CN(CCN3CCCCC3)CN1C2` [(S)-2-(2-Piperidin-1-yl-ethyl)-1,2,3,5,10,10a-hexahydro-imidazo[1,5-b]isoquinoline] had a concentration for half-maximal inhibition (IC50) of 77 nM.
As for `O=C1N(CCN2CCCCC2)C[C@@H]2Cc3ccccc3CN12` [(S)-2-(2-Piperidin-1-yl-ethyl)-1,5,10,10a-tetrahydro-2H-imidazo[1,5-b]isoquinolin-3-one], the figure is 54 nM; as for `Oc1c2n(c(=S)n1CCN1CCCCC1)Cc1ccccc1C2` [(S)-2-(2-Piperidin-1-yl-ethyl)-3-thioxo-2,3,10,10a-tetrahydro-5H-imidazo[1,5-b]isoquinolin-1-one], 0.9 nM.
The result for `O=c1n(CCN2CCCCC2)c(O)c2n1CCCC2` [(S)-2-(2-Piperidin-1-yl-ethyl)-tetrahydro-imidazo[1,5-a]pyridine-1,3-dione] reads greater than 1000 nM.
